In series [1] the test system is normal mouse knee joint cavity. The series can be described thus: Peptide retention in normal mouse joint cavities (immunofluorescence). The series is classed as in vivo. Particulars: biotin-labeled peptide, 10 μg in 10 μl PBS intraarticular, normal mice; for staining of joint cavity after intraarticular injection: 12, 24, 48 h, streptavidin-FITC, one mouse per time point. Here is the method:
As previous studies reported, immunofluorescence assay was used to assess the retention time of the peptides in normal mouse joint cavities (Williams et al., [2004]). The normal mice were divided into original and modified peptide groups and treated with the corresponding peptides [10 μg in 10 μl PBS by intraarticular (IA) injection respectively. At 12, 24, and 48 h after injection, a single mouse from each group was randomly chosen and sacrificed under anesthesia (1% sodium pentobarbital, 50 mg/kg)]. Knee joints were dissected, fixed in 4% paraformaldehyde, and decalcified with decalcification solution (0.5 M EDTA, pH 8.0) before embedding in paraffin. Midsagittal serial sections (7 μm in thickness) were cut and peptide retention was assessed using streptavidin-FITC (eBioscience) (1:100 in PBS) followed by fluorescent microscopy (Leica).
Figure 4 Retention time of the modified peptide in the joint cavities was prolonged. The biotin-labeled original or modified peptide was injected into the knee joint and then the knee joints were dissected at 12, 24, and 48 h and probed with streptavidin-FITC in immunofluorescence assays.

Another series has as its system mouse ATDC5 cells. Nature of the series: Peptide binding to cell surface, flow cytometry. Type of series: cell-based. As to conditions: 1 h room temperature, streptavidin-FITC; for binding to cell membrane of ATDC5 cells (flow cytometry) at 260 nmol: biotin-labeled peptide. The source says:
The mouse ATDC5 chondrogenic cell line is an important chondrocyte model that has been widely used in the study of chondrocyte proliferation and differentiation. This cell line was used to evaluate the membrane-binding ability of the modified peptide, as articular cartilage (which contains chondrocytes) is one of the main cellular components in the joint cavity. The cells were purchased from Guangzhou Jennio Biotech Co., Ltd. (Guangzhou, China) and maintained in Dulbecco's Modified Eagle Medium (DMEM, ThermoFisher, America) supplemented with 10% fetal bovine serum (FBS, Gibco, Australia) at 37°C in a humidified atmosphere with 5% CO2. The 5th−10th passages of the cells were used in the study.
To assess the binding ability of the modified peptide to the cell membrane, the three peptides were labeled with biotin at the C-terminus. Cultured mouse ATDC5 cells were washed with phosphate-buffered saline (PBS) and incubated with various concentrations of the control, original or modified peptides (65, 130, and 260 nmol, respectively) for 1 h at room temperature. After washing twice with PBS to remove the unbound peptides, streptavidin-fluorescein isothiocyanate (FITC; eBioscience, California, USA) was added and incubated for 0.5 h at room temperature. The cells were washed and resuspended in PBS and then the binding of the peptides to the cell membrane was assessed by flow cytometry (BD Biosciences, California, USA). To further assess the retention of peptides on the surface of cells, the mouse ATDC5 cells were cultured in a 12-well culture plate which contains cell slides on the bottom. They were washed with PBS on the next day and then blocked with normal goat serum for 30 min at room temperature before incubation with various concentrations of peptides (260 nmol, 540 nmol, and 1.08 mmol). The binding of the peptides to the cell membrane was then assessed by staining with streptavidin-FITC (eBioscience). After being stained, the cells that had adhered to the cell slides were mounted using ProLong Gold Antifade reagent (ZSGB-BIO, Beijing, china) containing 4′,6-diamidino-2-phenylindole (DAPI, ThermoFisher, America) dye to stain the cell nuclei. They were then analyzed by confocal laser scanning microscopy (Leica, Germany).
Figure 3 Modified peptide non-specifically bound to the cell surface. (A) Binding of peptides to the surface of mouse ATDC5 cells measured by flow cytometry. All experiments were performed three times and data are presented as mean ± SD. n = 5, ***p < 0.001, ns: not significant (p > 0.05). (B) Binding of various concentrations of biotin-labeled peptides on the surface of mouse ATDC5 cells assessed by confocal laser scanning microscopy. Arrowheads indicate the binding of the modified peptides on the surface of mouse ATDC5 cells.
In general terms: In flow cytometry, cells or beads pass a laser one at a time.

Series [2] relates to complement in normal mouse serum (NMS); rabbit erythrocytes. The series can be described thus: NMS-induced complement-mediated hemolysis of rabbit erythrocytes (alternative pathway). The series is classed as cell-based. Particulars: for inhibition of NMS-induced erythrocyte lysis: NMS 1:12.5, peptide 1.31, 2.62, 5.24 μmol, Mg-EGTA, 37°C 40 min, then rabbit erythrocytes 1 × 10^8, 30 min 37°C, absorbance 412 nm; for inhibition of NMS-induced erythrocyte lysis / inhibition of NMS-induced hemolysis compared to control peptide: three experiments; for NMS-induced erythrocyte lysis at 5.24 μmol: peptide 5.24 μmol, NMS 1:12.5; for inhibition of NMS-induced hemolysis compared to control peptide: peptide 2.62 and 5.24 μmol, *p < 0.05, **p < 0.01. Here is the method: Normal human serum (NHS) was collected from six healthy volunteers, and the donation procedure was approved by the Institutional Review Board (IRB) of Capital Medical University (approval number: 2016SY01). After venous blood was collected, it was clotted in serum separator tubes for 4 h at room temperature and then centrifuged at 1,000 g for 30 min to obtain the serum. The serum was divided into aliquots and stored at −80°C. To obtain normal mouse serum (NMS), blood was collected in the […] of mice under ether anesthesia and the serum was separated and stored as described above.
When rabbit erythrocytes are placed in xenogeneic serum (such as NHS or NMS), the alternative pathway of the complement system is activated, causing lysis of the rabbit erythrocytes. To evaluate the effects of the peptides on the complement activation-mediated erythrocyte lysis (involving the alternative complement pathway), NHS or NMS (1:12.5) was incubated with various concentrations of peptides (1.31, 2.62, and 5.24 μmol) in Mg-EGTA solution (5 mM MgCl2, 10 mM EGTA) at 37°C for 40 min before adding the mixture to freshly washed erythrocytes (1 × 10^8) in gelatin veronal-buffered saline (pH 7.4, containing 0.1% gelatin) for 30 min at 37°C. Lysis was stopped with cold Hanks' Balanced Salt Solution (HBSS^++) containing 10 mM ethylenediaminetetraacetic acid (EDTA). The samples were then centrifuged at 1,000 g for 10 min to obtain the supernatant, and the amount of released hemoglobin in the supernatant was determined by measuring the absorbance at 412 nm. The hemolytic activity relative to the water-induced lysis among the same number of erythrocytes was calculated.
Figure 2 Modified peptide bound to mouse complement C9 and inhibited normal mouse serum (NMS)-induced hemolysis of rabbit erythrocytes. (A) Microscale thermophoresis assay (NanoTemper) in which biomolecular interactions are quantitated by examining the motion of the molecules along a microscopic temperature gradient induced by an infrared laser. Changes in the molecular hydration shell, charge, or size are measured using a fluorescent probe (NT-647) bound covalently to the mouse C9. Binding of control, modified and original peptides to mouse C9 were studied. […] Data points indicate the differences in normalized fluorescence (%) generated by peptides binding to mouse C9, and curves indicate the calculated fits. Error bars represent the standard error of three independent measurements. (B) NMS-induced complement-mediated hemolysis was inhibited by the modified and original peptides (2.62 and 5.24 μmol) compared to the control peptide. All experiments were performed three times and data are presented as mean ± SD. *p < 0.05, **p < 0.01.

These results are taken from PMC7785802, “Therapeutic Efficacy of a Trichinella Spiralis Paramyosin-Derived Peptide Modified With a Membrane-Targeting Signal in Mice With Antigen-Induced Arthritis” (Frontiers in Microbiology, 2020).

Regarding “VSMGKSLSSKVYVM [original peptide, tetradecapeptide derived from Trichinella spiralis paramyosin (Ts-pmy)]”, the “staining of joint cavity after intraarticular injection” value in series [1] is on record as “no staining”. Moreover, the “binding to cell membrane of ATDC5 cells (flow cytometry) at 260 nmol” value with mouse ATDC5 cells (260 nmol) was “did not bind to the cell membrane”. In addition, in series [2], the “inhibition of NMS-induced erythrocyte lysis” value is listed as “inhibited in a dose-dependent manner”; the “NMS-induced erythrocyte lysis at 5.24 μmol” value is “reduced, to a similar level to the NHS-induced erythrocyte lysis”; the “inhibition of NMS-induced hemolysis compared to control peptide” value is “inhibited”.

With “Myr-GSSKSPSKKKKKKPG-ACP-VSMGKSLSSKVYVM [modified peptide, Ts-pmy-derived peptide modified with a membrane-targeting signal]”, the “staining of joint cavity after intraarticular injection” value in series [1] was “intense staining along the synovial lining even at 48 h after injection”. Moreover, in series [1] (48 h is last time point), the “retention time on synovial lining” value was at least 48 h. Besides, the “ATDC5 cells bound to peptide” value in the series with mouse ATDC5 cells (C-terminally biotin-labeled peptide, 260 nmol, flow cytometry, n = 5) is about 100%. Further, in the series on mouse ATDC5 cells (biotin-labeled peptide 65, 130, 260 nmol), the “binding to cell surface of ATDC5 cells (flow cytometry), concentration dependence” value is on record as “bound to the cell surface of mouse ATDC5 cells in a dose-dependent manner”. For the same substance, in series [2], the “inhibition of NMS-induced erythrocyte lysis” value is “inhibited in a dose-dependent manner”; the “NMS-induced erythrocyte lysis at 5.24 μmol” value is “reduced, to a similar level to the NHS-induced erythrocyte lysis”; the “inhibition of NMS-induced hemolysis compared to control peptide” value is given as “inhibited”.

As to “GKMSVMSVYKSVLS [control peptide, reference compound]”, the “binding to cell membrane of ATDC5 cells (flow cytometry) at 260 nmol” value in the series with mouse ATDC5 cells (260 nmol) was “did not bind to the cell membrane”. Also, the “inhibition of NMS-induced erythrocyte lysis” value in series [2] is listed as “no inhibitory effect”.
